Experiments:
Assay type in all cases: cell-based
[1] = tested on: Wnt activity (Sp5-Luc reporter, SW480 colon carcinoma cells); assay: Sp5-Luc Wnt reporter gene assay in SW480 colon carcinoma cells; settings: Homo sapiens; SW480 cells stably expressing Sp5-Luc reporter; 42 h incubation; BrightGlo luminescence normalized to DMSO
Procedure, shortened: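 IC50 values come from variable-slope four-parameter fits of luciferase signal normalized to DMSO wells. Stable Sp5-Luc reporter SW480 colon carcinoma cells were exposed to compounds in a 3-fold dilution series (source plates from 10 mM stock) for forty-two hours at 37 °C.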

[2] = tested on: primary human fibroblasts derived from IPF patients (LL29 cells); assay: Inhibition of TGF-β1-induced fibrosis (αSMA staining) in primary human fibroblasts from IPF patients; settings: Fibroblast, 96 h, TGF-β1 20 ng/mL, 4 days, 11-point dose-response 10 μM to 1.87 nM
Procedure, shortened: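 LL29 cells in F12 with 1% FBS were exposed to compound (11-point, 10 μM–1.87 nM, 0.1% DMSO) plus TGF-β1 20 ng/mL for 4 days at 37° C. Imaged αSMA-positive fraction of live (SYTOX-negative) cells, normalized to TGF-β1/DMSO wells; EC50 by non-linear regression of triplicates.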

[3] = tested on: primary human mesenchymal stem cells (hMSCs); assay: Chondrogenesis induction screen in primary human mesenchymal stem cells (nodule count, Rhodamine B/Nile Red); settings: 144 h, 6 days, concentration required to induce chondrogenesis equivalent to TGF-β3 (10 ng/mL), read-out: Conc (nM) of 100% TGF-β3 activity
Method: The above synthesized compounds were screened using primary human mesenchymal stem cells (hMSCs) to determine their ability to induce chondrogenesis (process by which cartilage is developed).
Primary human mesenchymal stem cells (hMSCs) were purchased from Lonza (Walkersville, Md.) and expanded in Mesenchymal Stem Cell Growth Media (Lonza). Cells between passage 3 and 6 were used for the experiments.
Each compound was dissolved in DMSO as a 10 mM stock and used to prepare compound source plates. Serial dilution (1:3, 6-point dose-response curves from 2700 nM to 10 nM) and compound transfer was performed using the ECHO 550 (Labcyte, Sunnyvale, Calif.) into 96-well clear bottom assay plates (Greiner Bio-One) with appropriate DMSO backfill for a final DMSO concentration of 0.03%. hMSCs were plated at 20,000 cells/well in 250 μL/well Incomplete Chondrogenic Induction Medium (Lonza; DMEM, dexamethasone, ascorbate, insulin-transferrin-selenium [ITS supplement], gentamycin-amphotericin [GA-1000], sodium pyruvate, proline and L-glutamine). TGF-β3 (10 ng/mL) was used as a positive control for differentiation while negative control wells were treated with 75 nL DMSO for normalization and calculating EC50 values. Cells were incubated at 37° C. and 5% CO2 for 6 days. To image chondrogenic nodules, the cells were fixed using 4% formaldehyde (Electron Microscopy Sciences), and stained with 2 μg/mL Rhodamine B (Sigma-Aldrich) and 20 μM Nile Red (Sigma-Aldrich) [Johnson K., et. al, A Stem Cell-Based Approach to Cartilage Repair, Science, (2012), 336(6082), 717-721]. The nodules imaged (4 images per well at 4× magnification) by excitation at 531 nm and emission at 625 nm and quantified using the CellInsight CX5 (Thermo Scientific). Number of nodules in each well was normalized to the average of 3 DMSO treated wells on the same plate using Excel (Microsoft Inc.). The normalized averages (fold change over DMSO) of 3 replicate wells for each compound concentration were calculated. Due to solubility limitations of some of the compounds, curve fitting was incomplete leading to inaccurate EC50 determinations.
Using TGF-β3 as a positive control, the concentration of test compounds required to induce equivalent levels of chondrogenesis is reported. In addition, the maximum activity of each compound and the respective dose that each compound reached maximum chondrogenesis activity is reported.

Compound: Cn1cc(-c2cnc3[nH]nc(-c4nc5c(-c6cccc(F)c6)nccc5[nH]4)c3c2)cn1 [Compound 888, 3-(4-(3-Fluorophenyl)-1H-imidazo[4,5-c]pyridin-2-yl)-5-(1-methyl-1H-pyrazol-4-yl)-1H-pyrazolo[3,4-b]pyridine]
- IC50 [1]: 12 nM
- EC50 [2]: 14 nM
- EC (100% TGF-beta3 activity) [3]: 74.9 nM

Compound: Cc1cn(-c2nccc3[nH]c(-c4n[nH]c5ncc(-c6cncc(NC(=O)CC(C)C)c6)cc45)nc23)cn1 [Compound 184, 3-Methyl-N-(5-(3-(4-(4-methyl-1H-imidazol-1-yl)-1H-imidazo[4,5-c]pyridin-2-yl)-1H-pyrazolo[3,4-b]pyridin-5-yl)pyridin-3-yl)butanamide]
- IC50 [1]: 4.8 nM
- EC (100% TGF-beta3 activity) [3]: 5.4 nM

Compound: CCCC(=O)Nc1cncc(-c2cnc3[nH]nc(-c4nc5c(-c6ccsc6)nccc5[nH]4)c3c2)c1 [Compound 251, N-(5-(3-(4-(Thiophen-3-yl)-1H-imidazo[4,5-c]pyridin-2-yl)-1H-pyrazolo[3,4-b]pyridin-5-yl)pyridin-3-yl)butyramide]
- IC50 [1]: 9.9 nM
- EC50 [2]: 73 nM
- EC (100% TGF-beta3 activity) [3]: 52.8 nM

Compound: CC(=O)c1ccc(-c2nccc3[nH]c(-c4n[nH]c5ncc(-c6cccnc6)cc45)nc23)s1 [Compound 368, 1-(5-(2-(5-(Pyridin-3-yl)-1H-pyrazolo[3,4-b]pyridin-3-yl)-1H-imidazo[4,5-c]pyridin-4-yl)thiophen-2-yl)ethan-1-one]
- IC50 [1]: 10.4 nM
- EC50 [2]: 241 nM
- EC (100% TGF-beta3 activity) [3]: 84.6 nM

Compound: CC(C)Nc1cncc(-c2cnc3[nH]nc(-c4nc5c(-c6ccoc6)nccc5[nH]4)c3c2)c1 [Compound 272, 5-(3-(4-(Furan-3-yl)-1H-imidazo[4,5-c]pyridin-2-yl)-1H-pyrazolo[3,4-b]pyridin-5-yl)-N-isopropylpyridin-3-amine]
- IC50 [1]: 13 nM
- EC50 [2]: 9 nM
- EC (100% TGF-beta3 activity) [3]: 72 nM

Compound: Cc1ccncc1-c1cnc2[nH]nc(-c3nc4c(-c5cc(F)cc(CNS(C)(=O)=O)c5)nccc4[nH]3)c2c1 [Compound 395, N-(3-Fluoro-5-(2-(5-(4-methylpyridin-3-yl)-1H-pyrazolo[3,4-b]pyridin-3-yl)-1H-imidazo[4,5-c]pyridin-4-yl)benzyl)methanesulfonamide]
- IC50 [1]: 8 nM
- EC50 [2]: 9 nM
- EC (100% TGF-beta3 activity) [3]: 92.8 nM

Compound: Cc1ccc(-c2nccc3[nH]c(-c4n[nH]c5ncc(-c6cncc(N)c6)cc45)nc23)s1 [Compound 341, 5-(3-(4-(5-Methylthiophen-2-yl)-1H-imidazo[4,5-c]pyridin-2-yl)-1H-pyrazolo[3,4-b]pyridin-5-yl)pyridin-3-amine]
- IC50 [1]: 0.9 nM
- EC50 [2]: 9 nM
- EC (100% TGF-beta3 activity) [3]: 58.2 nM

Compound: O=C(Nc1cncc(-c2cnc3[nH]nc(-c4nc5c(-c6ccc(F)cc6)nccc5[nH]4)c3c2)c1)C1CCC1 [Compound 46, N-(5-(3-(4-(4-Fluorophenyl)-1H-imidazo[4,5-c]pyridin-2-yl)-1H-pyrazolo[3,4-b]pyridin-5-yl)pyridin-3-yl)cyclobutanecarboxamide]
- IC50 [1]: 5 nM
- EC50 [2]: 253 nM
- EC (100% TGF-beta3 activity) [3]: 80.6 nM

Compound: CC(C)Nc1cncc(-c2cnc3[nH]nc(-c4nc5c(-c6cc(F)cc(NCCN(C)C)c6)nccc5[nH]4)c3c2)c1 [Compound 428, N^1-(3-Fluoro-5-(2-(5-(5-(isopropylamino)pyridin-3-yl)-1H-pyrazolo[3,4-b]pyridin-3-yl)-1H-imidazo[4,5-c]pyridin-4-yl)phenyl)-N^2,N^2-dimethylethane-1,2-diamine]
- IC50 [1]: 15 nM
- EC50 [2]: 20 nM
- EC (100% TGF-beta3 activity) [3]: 82.9 nM

Compound: Nc1cncc(-c2cnc3[nH]nc(-c4nc5c(-c6ccccc6F)nccc5[nH]4)c3c2)c1 [Compound 55, 5-(3-(4-(2-Fluorophenyl)-1H-imidazo[4,5-c]pyridin-2-yl)-1H-pyrazolo[3,4-b]pyridin-5-yl)pyridin-3-amine]
- IC50 [1]: 5.9 nM
- EC50 [2]: 283 nM
- EC (100% TGF-beta3 activity) [3]: 32.2 nM

Compound: CCC(=O)Nc1cncc(-c2cnc3[nH]nc(-c4nc5c(-c6cccc(F)c6)nccc5[nH]4)c3c2)c1 [Compound 1, N-(5-(3-(4-(3-Fluorophenyl)-1H-imidazo[4,5-c]pyridin-2-yl)-1H-pyrazolo[3,4-b]pyridin-5-yl)pyridin-3-yl)propionamide]
- IC50 [1]: 5.8 nM
- EC50 [2]: 62 nM
- EC (100% TGF-beta3 activity) [3]: 117 nM

Compound: Cc1ncc(-c2cnc3[nH]nc(-c4nc5c(-c6cccc(F)c6)nccc5[nH]4)c3c2)n1C [Compound 889, 5-(1,2-Dimethyl-1H-imidazol-5-yl)-3-(4-(3-fluorophenyl)-1H-imidazo[4,5-c]pyridin-2-yl)-1H-pyrazolo[3,4-b]pyridine]
- IC50 [1]: 12 nM
- EC50 [2]: 9 nM
- EC (100% TGF-beta3 activity) [3]: 152 nM

Compound: O=C(Nc1cncc(-c2cnc3[nH]nc(-c4nc5c(-c6cccs6)nccc5[nH]4)c3c2)c1)C1CC1 [Compound 305, N-(5-(3-(4-(Thiophen-2-yl)-1H-imidazo[4,5-c]pyridin-2-yl)-1H-pyrazolo[3,4-b]pyridin-5-yl)pyridin-3-yl)cyclopropanecarboxamide]
- IC50 [1]: 9 nM
- EC (100% TGF-beta3 activity) [3]: 54.9 nM
